Earlier results on 1 substance are cited in US20070191304A1, “Methods for performing percutaneous coronary intervention” (priority 2005, published 2007).

For the data set the following is noted: bivalirudin plus GP IIb/IIIa inhibitors.

With bivalirudin, the “Primary endpoint of death, myocardial infarction, urgent revascularization and major bleeding, compared to UFH plus planned GP IIb/IIIa inhibitors” value is reported as “noninferior”.
